Reference: patent publication US11248024B2, “Noxa-derived, cell death-inducing peptide eMTD” (INDUSTRY-ACADEMIC COOPERATION FOUNDATION, CHOSUN UNIVERSITY, priority 2019, dated 2022)
Ends that are not written are not given here. FAM = fluorescein

Tests used:
[1] = system: mitochondria isolated from livers of BalB/C mice; test: Mitochondrial swelling, absorbance at 540 nm / TEM; assay type: biochemical; conditions: peptides 25 μM, Ca2+ 200 μM, CsA 20 μM
Description: First, livers excised from 6-week-old BalB/C mice were immersed in buffer (250 mM mannitol, […], 5 mM HEPES, pH 7.4, 0.1 mM PMSF and 4 rotenone) and completely homogenized using a Teflon Potter-Elvehjem grinder (Sigma). The ground liver was centrifuged at 1000×g for 10 min at 4° C. and the supernatants were centrifuged at 10,000×g for 10 min at 4° C. The pellets thus obtained were suspended in a regeneration buffer (250 mM sucrose, 10 mM HEPES, pH 7.4, 5 mM sodium succinate, 2 mM potassium phosphate, 0.1 mM PMSF, 25 μM EGTA, and 4 rotenone).
The mitochondria thus obtained were treated with 25 μM of eMTD (SEQ ID NO: 1) or eMTDΔ4 (SEQ ID NO: 2), followed by reading absorbance at 540 nm to determine mitochondrial swelling.

HeLa = test: MTS assay, relative cell viability, HeLa; assay type: cell-based, human; conditions: for Viability (%): one hour treatment, Table 3
Description: Individual cell lines (HeLa, CT26, and B16F10) were purchased from the Korean Cell Line Bank. Dulbecco's modified Eagle's medium (DMEM), trypsin-EDTA, fetal bovine serum (FBS), and Hank's balanced salt solution (HBSS) were products from Gibco (Thermo Fisher).
Each of the cell lines was cultured in DMEM supplemented with 10% FBS in an incubator maintained at 37° C. and 5% 002.
For use in assaying the peptides eMTD (SEQ ID NO: 1) and eMTDΔ4 (SEQ ID NO: 2) synthesized in Example 1 for activity of inducing cell death, the cell line HeLa was grown to about 90% confluency in 96-well plates. The cells were washed once with HBSS buffer before treatment with the peptides of the present disclosure eMTD (SEQ ID NO: 1) and eMTDΔ4 (SEQ ID NO: 2) at concentrations of 0, 20, and 40 for one hour. Thereafter, the cells were incubated with an MTS assay agent (Promega) for one hour, followed by reading absorbance to calculate relative viability of cells.
Examination was made to see whether the peptide has the activity of inducing cell death in other cancer cell lines. In this regard, the cancer cell lines HeLa, CT26, and B16F10 were treated with eMTDΔ4 (SEQ ID NO: 2) at concentrations of 0, 20, and 40 μM.

[2] = Two-step assay, damage on lipid membrane of liposomes (TbCl3/DPA fluorescence); assay type: biochemical; conditions: for Relative Fluorescence Intensity: liposomes, excitation 276 nm, read at 490 nm
Description: In brief, DOPS, DOPE, and DOPC (Avanti Polar Lipids) were dissolved at the ratio of 2:4:3 in chloroform, followed by vaporization. The residue was again dissolved at the concentration of 2 mg/mL in TbCl3 buffer (15 mM TbCl3, 50 mM sodium citrate, 20 mM HEPES, 150 mM NaCl, pH 7.4). The lipid mixture was extruded by Mini extruder (Avanti Polar Lipids) with a 400 nm to prepare liposomes which were washed with washing buffer (150 mM NaCl, 20 mM HEPES, pH 7.4) and then resuspended in an assay buffer (50 DPA, […], 20 mM HEPES, pH 7.4). The suspension was plated into 96-well plates and treated with 0, 10, or 25 μM of eMTD (SEQ ID NO: 1) or eMTDΔ4 (SEQ ID NO: 2). After stimulation with 276 nm laser, fluorescence was read at 490 nm.

HeLa cells [3] = test: Time-lapse confocal microscopy of peptide entry, Mito-DsRed2 transfected cells; assay type: cell-based, human; conditions: images every five seconds for 10 min
Description: In order to investigate the temporal order and cause relation between the introduction of eMTDΔ4 (SEQ ID NO: 2) and the damage of mitochondrial membrane and cell membrane, mitochondria were visualized by transfecting Mito-DsRed2 into HeLa cells one day before the experiment. Thereafter, eMTDΔ4 (SEQ ID NO: 2)-FAM was applied to the HeLa cells images of which were then taken every five seconds for 10 min under a confocal microscope.

HeLa cells [4] = test: Intracellular localization of FAM-labelled peptide, confocal images (TOM20, DAPI); assay type: cell-based, human; conditions: 5 and 10 min incubation, fixed
Description: In order to investigate the source that allowed the intracellular calcium influx observed in Example 4, examination was made of the site at which the peptide eMTDΔ4 (SEQ ID NO: 2) acts. In this regard, the fluorescent tracer fluorescein was labeled to the C-terminal of the peptide eMTDΔ4 (SEQ ID NO: 2) (eMTDΔ4 (SEQ ID NO: 2)-FAM). Then, HeLa cells grown on Lab-Tek chamber glass were incubated with eMTDΔ4 (SEQ ID NO: 2)-FAM for 5 and 10 min before fixation with 1% paraformaldehyde.
Mitochondria were visualized using an antibody to TOM20, which localizes to the outer membrane of the mitochondrion because MTD (SEQ ID NO: 3) is known to migrate to mitochondria, while nuclei were visualized using DAPI.

| Molecule | Mitochondrial swelling, relative absorbance at 540 nm ([1]; Minute 0) [%] | Mitochondrial swelling, relative absorbance at 540 nm ([1]; Minute 10) [%] | Mitochondrial swelling, relative absorbance at 540 nm ([1]; Minute 20) [%] | Mitochondrial swelling, relative absorbance at 540 nm ([1]; Minute 30) [%] | Mitochondrial swelling, relative absorbance at 540 nm ([1]; Minute 40) [%] | Mitochondrial swelling, relative absorbance at 540 nm ([1]; Minute 50) [%] | Mitochondrial swelling, relative absorbance at 540 nm ([1]; Minute 60) [%] | Viability (%) (HeLa; 20 μM) | Viability (%) (HeLa; 40 μM) | cell death activity (in words) (HeLa; FIG. 1 and Table 3) | liposome lipid membrane damage (in words) ([2]; FIGS. 10A to 10C and Table 6) | Relative Fluorescence Intensity ([2]; 10 μM) [%] | Relative Fluorescence Intensity ([2]; 25 μM) [%] | entry of peptide into cells (HeLa cells [3]) | intracellular localization (HeLa cells [4]) | mitochondrial morphology (HeLa cells [4]) |
| --- | --- | --- | --- | --- | --- | --- | --- | --- | --- | --- | --- | --- | --- | --- | --- | --- |
| [Ca+2] [Ca, reference compound] | 100 | 77 | 75 | 73 | 72 | 70 | 70 |  |  |  |  |  |  |  |  |  |
| KLNFRQKLLNLISKLFCSGT [eMTD] | 100 | 86 | 78 | 71 | 68 | 68 | 67 | 61 | 63 | potent cell death activity | higher fluorescence intensity was detected | 27 | 55 |  |  |  |
| MPGKKARKNAQPSPARAPAELEVECATQLRRFGDKLNFRQKLLNLISKLFCSGT (cysteines drawn unpaired) [fl-Noxa, reference compound] |  |  |  |  |  |  |  | 101 | 106 |  |  |  |  |  |  |  |
| eMTDΔ4-FAM: fluorescent tracer fluorescein labeled to the C-terminal of the peptide eMTDΔ4 (KLNFRQKLLNLISKLF-{FAM}) |  |  |  |  |  |  |  |  |  |  |  |  |  | diffused into the cytosol through the cell membrane bubbles | consistent with the visualized positions of mitochondria | mitochondrial fragmentation was observed |
